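Following 48 hours of exposure in 96-well plates, responses at five concentrations were used to interpolate endpoints linearly. Abbreviation: GI50, concentration required for 50% inhibition of growth. The concentration for full growth arrest is given as TGI.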
How the values were obtained:
Test in all cases: NCI-60 cell line screen, 48 h
[1] = tested on: 786-0 renal
[2] = tested on: A498 renal
[3] = tested on: A549 NSCLC
[4] = tested on: BT-549 breast
[5] = tested on: CAKI-1 renal
[6] = tested on: CCRF-CEM leukemia
[7] = tested on: COLO 205 colon
[8] = tested on: DU-145 prostate
[9] = tested on: EKVX NSCLC
[10] = tested on: HCC-2998 colon
[11] = tested on: HCT-116 colon
[12] = tested on: HCT-15 colon
[13] = tested on: HL-60(TB) leukemia
[14] = tested on: HOP-62 NSCLC
[15] = tested on: HOP-92 NSCLC
[16] = tested on: HS 578T breast
[17] = tested on: IGROV1 ovarian
[18] = tested on: K-562 leukemia
[19] = tested on: KM12 colon
[20] = tested on: M14 melanoma
[21] = tested on: MALME-3M melanoma
[22] = tested on: MCF7 breast
[23] = tested on: MDA-MB-231 breast
[24] = tested on: MDA-MB-435
[25] = tested on: MOLT-4 leukemia
[26] = tested on: NCI-H226 lung
[27] = tested on: NCI-H23 lung
[28] = tested on: NCI-H460 lung
[29] = tested on: NCI-H522 lung
[30] = tested on: NCI/ADR-RES ovarian
[31] = tested on: OVCAR-4 ovarian
[32] = tested on: OVCAR-8 ovarian
[33] = tested on: PC-3 prostate
[34] = tested on: RPMI-8226 leukemia
[35] = tested on: SF-268 CNS
[36] = tested on: SF-295 CNS
[37] = tested on: SK-MEL-2 melanoma
[38] = tested on: SK-MEL-28 melanoma
[39] = tested on: SK-MEL-5 melanoma
[40] = tested on: SK-OV-3 ovarian
[41] = tested on: SN12C renal
[42] = tested on: SNB-19 CNS
[43] = tested on: SNB-75 CNS
[44] = tested on: SW-620 colon
[45] = tested on: T-47D breast
[46] = tested on: TK-10 renal
[47] = tested on: U251 CNS
[48] = tested on: UACC-257 melanoma
[49] = tested on: UACC-62 melanoma
[50] = tested on: UO-31 renal

Question: With COc1cc(/C=C/c2cc(/C=C/c3ccc(O)c(OC)c3)n(C(=O)c3ccccc3Br)n2)ccc1O as the molecule, how does the GI50 [1] read?
Answer: Its GI50 is 3.19 µM.

Question: What about the TGI [1] of the same molecule?
Answer: The TGI was over 100 µM.

Question: And the GI50 [2]?
Answer: The GI50 was 3.04 µM.

Question: And the TGI [2]?
Answer: The TGI was 8.71 µM.

Question: And the GI50 [3]?
Answer: The GI50 was 3.05 µM.

Question: And the TGI [3]?
Answer: The TGI was 45.3 µM.

Question: What about the GI50 [4] of the same molecule?
Answer: The GI50 was 2.12 µM.

Question: And the TGI [4]?
Answer: Its TGI is 7.75 µM.

Question: What about the GI50 [5] of the same molecule?
Answer: The GI50 was 2.2 µM.

Question: What about the TGI [5] of the same molecule?
Answer: Its TGI is over 100 µM.

Question: And the GI50 [6]?
Answer: Its GI50 is 0.841 µM.

Question: And the TGI [6]?
Answer: Its TGI is 6.14 µM.

Question: And the GI50 [7]?
Answer: The GI50 was 2.31 µM.

Question: And the TGI [7]?
Answer: Its TGI is 4.63 µM.

Question: What about the GI50 [8] of the same molecule?
Answer: The GI50 was 3.29 µM.

Question: And the TGI [8]?
Answer: Its TGI is 34.8 µM.

Question: What about the GI50 [9] of the same molecule?
Answer: Its GI50 is 4.72 µM.

Question: And the TGI [9]?
Answer: The TGI was over 100 µM.

Question: And the GI50 [10]?
Answer: The GI50 was 2.48 µM.

Question: And the TGI [10]?
Answer: The TGI was 6.37 µM.

Question: What about the GI50 [11] of the same molecule?
Answer: Its GI50 is 3.06 µM.

Question: And the TGI [11]?
Answer: The TGI was over 100 µM.

Question: What about the GI50 [12] of the same molecule?
Answer: The GI50 was 2.8 µM.

Question: What about the TGI [12] of the same molecule?
Answer: Its TGI is over 100 µM.

Question: What about the GI50 [13] of the same molecule?
Answer: Its GI50 is 2.07 µM.

Question: What about the TGI [13] of the same molecule?
Answer: Its TGI is 6 µM.

Question: And the GI50 [14]?
Answer: The GI50 was 3.41 µM.

Question: What about the TGI [14] of the same molecule?
Answer: Its TGI is 16.3 µM.

Question: What about the GI50 [15] of the same molecule?
Answer: Its GI50 is 3.82 µM.

Question: What about the TGI [15] of the same molecule?
Answer: Its TGI is 9.65 µM.

Question: And the GI50 [16]?
Answer: Its GI50 is 2.75 µM.

Question: And the TGI [16]?
Answer: Its TGI is 48.6 µM.

Question: And the GI50 [17]?
Answer: Its GI50 is 4.11 µM.

Question: And the TGI [17]?
Answer: The TGI was over 100 µM.

Question: What about the GI50 [18] of the same molecule?
Answer: The GI50 was 1.45 µM.

Question: And the TGI [18]?
Answer: Its TGI is over 100 µM.

Question: And the GI50 [19]?
Answer: Its GI50 is 2.22 µM.

Question: And the TGI [19]?
Answer: The TGI was over 100 µM.

Question: What about the GI50 [20] of the same molecule?
Answer: Its GI50 is 3.07 µM.

Question: And the TGI [20]?
Answer: The TGI was over 100 µM.

Question: And the GI50 [21]?
Answer: The GI50 was 3.27 µM.

Question: And the TGI [21]?
Answer: The TGI was 43.6 µM.

Question: What about the GI50 [22] of the same molecule?
Answer: Its GI50 is 3 µM.

Question: What about the TGI [22] of the same molecule?
Answer: Its TGI is 13 µM.

Question: And the GI50 [23]?
Answer: Its GI50 is 3.59 µM.

Question: What about the TGI [23] of the same molecule?
Answer: Its TGI is over 100 µM.

Question: What about the GI50 [24] of the same molecule?
Answer: The GI50 was 0.687 µM.

Question: And the TGI [24]?
Answer: Its TGI is 8.06 µM.

Question: What about the GI50 [25] of the same molecule?
Answer: Its GI50 is 1.23 µM.

Question: What about the TGI [25] of the same molecule?
Answer: Its TGI is over 100 µM.

Question: What about the GI50 [26] of the same molecule?
Answer: The GI50 was 3.29 µM.

Question: And the TGI [26]?
Answer: The TGI was 56.5 µM.

Question: What about the GI50 [27] of the same molecule?
Answer: The GI50 was 2.68 µM.

Question: What about the TGI [27] of the same molecule?
Answer: Its TGI is 16.9 µM.

Question: What about the GI50 [28] of the same molecule?
Answer: Its GI50 is 2.99 µM.

Question: What about the TGI [28] of the same molecule?
Answer: The TGI was over 100 µM.

Question: What about the GI50 [29] of the same molecule?
Answer: Its GI50 is 1.38 µM.

Question: And the TGI [29]?
Answer: Its TGI is 6.32 µM.

Question: What about the GI50 [30] of the same molecule?
Answer: Its GI50 is 3.72 µM.

Question: What about the TGI [30] of the same molecule?
Answer: Its TGI is over 100 µM.

Question: What about the GI50 [31] of the same molecule?
Answer: Its GI50 is 3.64 µM.

Question: What about the TGI [31] of the same molecule?
Answer: Its TGI is 22.8 µM.

Question: And the GI50 [32]?
Answer: The GI50 was 2.75 µM.

Question: And the TGI [32]?
Answer: The TGI was 12.4 µM.

Question: And the GI50 [33]?
Answer: Its GI50 is 3.02 µM.

Question: And the TGI [33]?
Answer: The TGI was 66.9 µM.

Question: What about the GI50 [34] of the same molecule?
Answer: The GI50 was 2.05 µM.

Question: What about the TGI [34] of the same molecule?
Answer: Its TGI is 6 µM.

Question: What about the GI50 [35] of the same molecule?
Answer: Its GI50 is 2.44 µM.

Question: What about the TGI [35] of the same molecule?
Answer: Its TGI is over 100 µM.

Question: What about the GI50 [36] of the same molecule?
Answer: The GI50 was 3.12 µM.

Question: And the TGI [36]?
Answer: The TGI was 35.1 µM.

Question: And the GI50 [37]?
Answer: Its GI50 is 2.37 µM.

Question: What about the TGI [37] of the same molecule?
Answer: Its TGI is 5.92 µM.

Question: And the GI50 [38]?
Answer: Its GI50 is 2.57 µM.

Question: What about the TGI [38] of the same molecule?
Answer: The TGI was 8.71 µM.

Question: And the GI50 [39]?
Answer: The GI50 was 2.56 µM.

Question: What about the TGI [39] of the same molecule?
Answer: The TGI was 13.3 µM.

Question: And the GI50 [40]?
Answer: The GI50 was 2.24 µM.

Question: And the TGI [40]?
Answer: The TGI was 5.31 µM.

Question: What about the GI50 [41] of the same molecule?
Answer: Its GI50 is 2.22 µM.

Question: And the TGI [41]?
Answer: The TGI was over 100 µM.

Question: What about the GI50 [42] of the same molecule?
Answer: Its GI50 is 2.7 µM.

Question: What about the TGI [42] of the same molecule?
Answer: Its TGI is over 100 µM.

Question: And the GI50 [43]?
Answer: Its GI50 is 2.79 µM.

Question: And the TGI [43]?
Answer: The TGI was 15.4 µM.

Question: And the GI50 [44]?
Answer: Its GI50 is 3.66 µM.

Question: And the TGI [44]?
Answer: Its TGI is over 100 µM.

Question: And the GI50 [45]?
Answer: The GI50 was 2.93 µM.

Question: And the TGI [45]?
Answer: The TGI was 13.2 µM.

Question: And the GI50 [46]?
Answer: The GI50 was 3.85 µM.

Question: What about the TGI [46] of the same molecule?
Answer: Its TGI is 33 µM.

Question: And the GI50 [47]?
Answer: The GI50 was 2.62 µM.

Question: What about the TGI [47] of the same molecule?
Answer: Its TGI is over 100 µM.

Question: What about the GI50 [48] of the same molecule?
Answer: Its GI50 is 3.36 µM.

Question: What about the TGI [48] of the same molecule?
Answer: Its TGI is 40.1 µM.

Question: What about the GI50 [49] of the same molecule?
Answer: The GI50 was 2.64 µM.

Question: What about the TGI [49] of the same molecule?
Answer: The TGI was 8.77 µM.

Question: What about the GI50 [50] of the same molecule?
Answer: Its GI50 is 2.36 µM.

Question: And the TGI [50]?
Answer: Its TGI is 34.1 µM.
